The text below walks through data of US7718641B2, “Pyrrolo [3,4-H] isoquinoline compounds and methods for modulating gated ion channels” (Aros Pharma ApS, priority 2005, dated 2010).

For the assay, the target named is T1, hASIC1a (Homo sapiens, UniProt P78348).
T1 sequence (P78348 1-528): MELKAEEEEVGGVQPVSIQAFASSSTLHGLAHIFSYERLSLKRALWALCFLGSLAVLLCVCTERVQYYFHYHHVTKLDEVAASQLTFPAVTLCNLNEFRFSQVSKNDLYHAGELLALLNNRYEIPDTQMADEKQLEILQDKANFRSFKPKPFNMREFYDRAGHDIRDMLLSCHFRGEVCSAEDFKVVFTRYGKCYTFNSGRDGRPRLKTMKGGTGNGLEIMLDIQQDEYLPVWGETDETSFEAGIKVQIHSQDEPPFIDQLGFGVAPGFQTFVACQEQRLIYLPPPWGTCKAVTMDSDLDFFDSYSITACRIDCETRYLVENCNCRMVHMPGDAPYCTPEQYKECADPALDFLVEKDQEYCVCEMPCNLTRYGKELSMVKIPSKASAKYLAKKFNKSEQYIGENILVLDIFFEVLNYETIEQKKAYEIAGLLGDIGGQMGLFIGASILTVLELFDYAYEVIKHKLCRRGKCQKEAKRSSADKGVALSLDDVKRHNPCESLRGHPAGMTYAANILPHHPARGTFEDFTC
Description: Whole-cell voltage clamp of pH-evoked response of human ASIC1a stably transfected in CHO cells. Format: cell-based. The arrangement: expressed in transfected cells. The conditions noted are these: CHO cells. Here is the method:
FIG. 3 illustrates the inhibitory effect of Compound A on acid-evoked activation of human ASIC1a stably transfected in CHO cells. […] In this example, the size of the pH-evoked response was determined by measuring the area under the curve of the response (total charge transfer) and normalized to the control response. FIG. 3B depicts an example of an hASIC1a current (whole cell voltage clamp, −60 mV) evoked by a pH 6.8-buffered solution (from pH 7.4) in the presence or absence of Compound A (3 μM).
These endogenous proton-activated inward currents were recorded in the presence and absence of Compound J (1 μM) or Compound K (1 μM) using the whole cell configuration of the patch clamp method (voltage clamp mode).
All experiments are performed at room temperature (20-25° C.) in voltage clamp using conventional whole cell patch clamp methods (Neher, E., et al. (1978) Pfluegers Arch 375:219-228).
Coverslips with the cells are transferred to a 15 μl experimental chamber mounted on the stage of an inverted microscope (IMT-2, Olympus) supplied with Nomarski optics. Cells are continuously superfused with extracellular saline at a rate of 2.5 ml/min. After giga-seal formation, the whole cell configuration is attained by suction. The cells are held at a holding voltage of −60 mV and at the start of each experiment the current is continuously measured for 45 s to ensure a stable baseline. Solutions of low pH (<7) are delivered to the chamber through a custom-made gravity-driven flowpipe, the tip of which is placed approximately 50 μm from the cell. Application is triggered when the tubing connected to the flowpipe is compressed by a valve controlled by the Pulse-software. Initially, low pH (in general, pH 6.5) is applied for 5 s every 60 s. The sample interval during application is 5501s. After stable responses are obtained, the extracellular saline as well as the low-pH solution are switched to solutions containing the compound to be tested. The compound is present until responses of a repeatable amplitude are achieved. Current amplitudes are measured at the peak of the responses, and effect of the compounds is calculated as the amplitude at compound equilibrium divided by the amplitude of the current evoked by the pulse just before the compound was included.
The following salt solutions are used: extracellular solution (mM): NaCl (140), KCl (4), CaCl2 (2), MgCl2 (4), HEPES (10, pH 7.4); intracellular solution (mM): KCl (120), KOH (31), MgCl2 (1.785), EGTA (10), HEPES (10, pH 7.2). In general, compounds for testing are dissolved in 50% DMSO at 500 fold the highest concentration used.
Similar findings are shown in FIG. 3 with the human ASIC1a stably transfected in CHO cells. FIG. 3A compares the dose-response relationship between Compound A and amiloride [determined by measuring the area under the curve of the response (total charge transfer) and normalized to the control response]. […] FIGS. 14A and 14B show similar results for Compounds J and K.

Turning to `COc1ccc(F)cc1-c1cc2c(c3c1CCN(C)C3)NC(=O)/C2=N/O` [Compound A, 5-(5-fluoro-2-methoxyphenyl)-6,7,8,9-tetrahydro-3-(hydroxyimino)-8-methyl-1H-pyrrolo[3,2-h]isoquinoline-2(3H)-one], the “effect on size of human ASIC1a pH-evoked response (area under the curve, total charge transfer, normalized to control)” value (-60 mV, pH 6.8 from pH 7.4) was “reduce the human ASIC1a pH-evoked response in a dose-dependent manner”. Also, the “potency relative to amiloride” value (human ASIC1a pH-evoked response) was “about 100 fold”.
